The values below are quoted from earlier work in patent publication US8293243B2 (priority 2004, dated 2012).

For the data set the following is noted: in vivo; cited from earlier work.

*1 amine or outer side, *2 acyl side, *3 side chain or, on linkers, in order; H or OH if unused. Where a SMILES comes first, the peptide text is derived from it. Bridges are numbered along the chain shown (N, C = ends). Roman numbers before positions name the chains, in order. [ ]: non-standard residue; d: D form. Actinocin(9to1) = Cc1c2oc3c(C)ccc(C(=O)[*:1])c3nc-2c(C(=O)[*:2])c(N)c1=O; NMeV = CN[C@H](C(=O)O)C(C)C; Sar = CNCC(=O)O

Regarding `Cc1c2oc3c(C)ccc(C(=O)N[C@@H]4C(=O)N[C@H](C(C)C)C(=O)N5CCC[C@H]5C(=O)N(C)CC(=O)N(C)[C@@H](C(C)C)C(=O)O[C@@H]4C)c3nc-2c(C(=O)N[C@@H]2C(=O)N[C@H](C(C)C)C(=O)N3CCC[C@H]3C(=O)N(C)CC(=O)N(C)[C@@H](C(C)C)C(=O)O[C@@H]2C)c(N)c1=O` [Actinomycin D] (I: T[dV]P[Sar][NMeV] / II: T[dV]P[Sar][NMeV]; ester I:1-I:C, II:1-II:C; linker I:N-II:N via Actinocin(9to1)), the “passage of the blood-brain barrier” value is “does not pass the blood-brain barrier”.
